Test results reported in patent EP0624159B1, “PYRIDYL SUBSTITUTED IMIDAZOLES” (SMITHKLINE BEECHAM CORPORATION, priority 1992, dated 1993).

Columns and labels:
[1] = tested on: IL-1 production by human monocytes; experiment: Inhibition of in vitro IL-1 production by LPS-stimulated human monocytes (IL-1 bioassay via EL-4 IL-2 secretion); type: cell-based; conditions: Monocyte; human peripheral blood monocytes, compound 1 hr before LPS 50 ng/ml, 24 hours at 37°C
Method: The effects of compounds of Formula (I) on the in vitro production of IL-1 by human monocytes was examined using the following protocol.
Bacterial lipopolysaccharide (LPS) was used to induce IL-1 production by human peripheral blood monocytes. IL-1 activity was measured by its ability to stimulate a Interleukin 2 (IL-2) producing cell line (EL-4) to secrete IL-2, in concert with A23187 ionophore, according to the method of Simon et al., J. Immunol. Methods, 84, 85, (1985). Human peripheral blood monocytes were isolated and purified from either fresh blood preparations from volunteer donors, or from blood bank buffy coats, according to the procedure of Colotta et al., J. Immunol., 132, 936 (1984). 1 X 10^6 of such monocytes were plated in 24-well plates at a concentration of 1-2 million/ml per well. The cells were allowed to adhere for 2 hours, after which time non-adherent cells were removed by gentle washing. Test compounds were then added to the cells for 1 hour (hr) before the addition of lipopolysaccharide (50 ng/ml), and the cultures were incubated at 37°C for an additional 24 hours. At the end of the incubation period, culture supernatants were removed and clarified of cells and all debris. Culture supernatants were immediately assayed for IL-1 biological activity in the manner described above, as well as for prostaglandin and/or leukotriene concentrations by radioimmunoassay.

[2] = tested on: TNF production by Human Monocytes; experiment: Inhibition of in vitro TNF production by LPS-stimulated human monocytes (radioimmunoassay / ELISA); type: cell-based; conditions: Monocyte; human peripheral blood monocytes, compound 45 minutes before LPS 100 ng/ml, 16-18 hours at 37°C
Method: The effects of compounds of Formula (I) on the in vitro production of TNF by human monocytes was examined using the following protocol.
Human peripheral blood monocytes were isolated and purified from either blood bank buffy coats or plateletpheresis residues, according to the procedure of Colotta, R. et al., J. Immunol., 132(2):936 (1984). The monocytes were plated at a density of 1 X 10^6 cells/ml medium/well in 24-well multi-dishes. […]
The assay buffer consisted of 0.01M NaPO4, 0.15M NaCl, 0.025M EDTA and 0.1% sodium azide at pH 7.4. […] Tubes were centrifuged for 30 minutes at 2000 rpm, supernatants were carefully aspirated, and radioactivity associated with the pellets measured in a Beckman Gamma 5500 counter. […] The concentrations of TNF in the samples was read of a standard curve of rhTNF that was linear in the 157 to 20,000 pg/ml range.
Iodination of rhTNF was performed using a modified chloramine-T method of Frolik et al., J. Biol. Chem., 259:10995-11000 (1984). […] The peak radioactivity containing fractions were pooled and stored at -20°C. […] Biological activity of iodinated TNF was measured by the L929 cytotoxicity assay of Neale, M.L. et al., Eur. J. Can. […]

For `Fc1ccc(-c2nc(-c3ccccc3)cn2-c2ccncc2)cc1` [Example 1, 1-(4-Pyridyl)-2-(4-fluorophenyl)-4-phenylimidazole], which IC50 [1] is on record?
Its IC50 is 0.1 to 5 µM.

What about the IC50 [2] of the same compound?
The IC50 was 0.5 to 3.5 µM.

How did the IC50 [1] turn out when `Oc1ccc(-c2cn(-c3ccncc3)c(-c3ccc(F)cc3)n2)cc1` [Example 2, 1-(4-Pyridyl)-2-(4-fluorophenyl)-4-(4-hydroxyphenyl)imidazole] was run?
Its IC50 is 0.1 to 5 µM.

What about the IC50 [2] of the same compound?
Its IC50 is 0.5 to 3.5 µM.

`CSc1ccc(-c2cn(-c3ccncc3)c(-c3ccc(F)cc3)n2)cc1` [Example 3, 1-(4-Pyridyl)-2-(4-fluorophenyl)-4-(4-thiomethylphenyl) imidazole] was tested. Which IC50 [1] did it give?
The IC50 was greater than 5 µM.

With `C[S+]([O-])c1ccc(-c2cn(-c3ccncc3)c(-c3ccc(F)cc3)n2)cc1` (stereo not shown) [Example 4, 1-(4-Pyridyl)-2-(4-fluorophenyl)-4-(4-methylsulfinylphenyl)imidazole] as the compound, how does the IC50 [1] read?
The IC50 was greater than 5 µM.

With `Cc1cn(-c2ccncc2)c(-c2ccc(F)cc2)n1` [Example 5, 1-(4-pyridyl)-2-(4-fluorophenyl)-4-methylimidazole] as the compound, how does the IC50 [1] read?
Its IC50 is 0.1 to 5 µM.
